Source: ChEMBL document CHEMBL1201862, “PubChem BioAssay data set” (2004)
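Following 48 hours of exposure in 96-well plates, responses at five concentrations were used to interpolate endpoints linearly. Abbreviation: GI50, concentration required for 50% inhibition of growth.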 The source made the active and inactive calls. Rule as the data show it: active = GI50 up to about 1.1 µM and inactive = higher.

Columns and labels:
Experiment in all cases: NCI-60 cell line screen, 48 h
[1] = system: DU-145
[2] = system: HCT-15
[3] = system: SF-268
[4] = system: BT-549
[5] = system: NCI/ADR-RES
[6] = system: NCI-H226
[7] = system: RPMI-8226
[8] = system: Malme-3M
[9] = system: HT-29
[10] = system: U-251
[11] = system: HOP-62
[12] = system: IGROV-1
[13] = system: HCT-116
[14] = system: SK-MEL-28
[15] = system: ACHN
[16] = system: K562
[17] = system: LOX IMVI
[18] = system: HCC 2998
[19] = system: UO-31

Row | SMILES | GI50 [1] | GI50 [2] [µM] | GI50 [3] | GI50 [4] | GI50 [5] | GI50 [6] | GI50 [7] | GI50 [8] | GI50 [9] | GI50 [10] | GI50 [11] | GI50 [12] | GI50 [13] | GI50 [14] | GI50 [15] | GI50 [16] | GI50 [17] | GI50 [18] | GI50 [19]
1 | NC1(P(=O)(O)O)CCCCC1 | > 100 µM (inactive) | > 100 | > 100 µM (inactive) | > 100 µM (inactive) | > 100 µM (inactive) | > 100 µM (inactive) | > 100 µM (inactive) | > 100 µM (inactive) | > 100 µM (inactive) | > 100 µM (inactive) | > 100 µM (inactive) | > 100 µM (inactive) | > 100 µM (inactive) | > 100 µM (inactive) | > 100 µM (inactive) | > 100 µM (inactive) | > 100 µM (inactive) | – | –
2 | O=c1[nH]/c(=C/c2ccc(OCc3ccccc3)cn2)c(=O)[nH]/c1=C/c1ccccc1 | 0.128 µM (active) | 0.135 | 0.206 µM (active) | 0.787 µM (active) | 0.0794 µM (active) | – | 0.123 µM (active) | – | 0.12 µM (active) | 0.119 µM (active) | 0.239 µM (active) | 0.207 µM (active) | 0.146 µM (active) | > 100 µM (inactive) | 0.296 µM (active) | 0.141 µM (active) | 0.207 µM (active) | 0.175 µM (active) | –
3 | S=C(c1c[nH]c2ccccc12)N1CCN(Cc2ccccc2)CC1 | 17.5 µM (inactive) | 13.6 | 19.5 µM (inactive) | 14.7 µM (inactive) | 17 µM (inactive) | 15 µM (inactive) | 13 µM (inactive) | 19.5 µM (inactive) | 16.5 µM (inactive) | 19.5 µM (inactive) | 18.5 µM (inactive) | 12.7 µM (inactive) | 15.7 µM (inactive) | 17.3 µM (inactive) | 25.5 µM (inactive) | 27.1 µM (inactive) | 15.7 µM (inactive) | – | 6.61 µM (inactive)
4 | CCc1ccc(Nc2cc(=O)[nH]c(SCc3ccccc3)n2)cc1 | > 100 µM (inactive) | > 100 | 73.1 µM (inactive) | > 100 µM (inactive) | 74.1 µM (inactive) | > 100 µM (inactive) | > 100 µM (inactive) | > 100 µM (inactive) | > 100 µM (inactive) | – | 32.5 µM (inactive) | > 100 µM (inactive) | 80.7 µM (inactive) | – | 50.7 µM (inactive) | > 100 µM (inactive) | > 100 µM (inactive) | – | > 100 µM (inactive)
5 | COC(=O)c1cc2c3c(c(C(C)=O)c(OC)c2[nH]1)NCC3 | > 50 µM (inactive) | > 50 | > 50 µM (inactive) | > 50 µM (inactive) | > 50 µM (inactive) | 34.5 µM (inactive) | > 50 µM (inactive) | > 50 µM (inactive) | > 50 µM (inactive) | > 50 µM (inactive) | > 50 µM (inactive) | > 50 µM (inactive) | > 50 µM (inactive) | – | > 50 µM (inactive) | > 50 µM (inactive) | > 50 µM (inactive) | – | > 50 µM (inactive)
6 | COc1ccc(-c2nc(SCC(=O)NNC(=S)Nc3ccccc3)[nH]c2-c2ccc(OC)cc2)cc1 | 28.7 µM (inactive) | 22.2 | 25.9 µM (inactive) | 24 µM (inactive) | 74.5 µM (inactive) | – | – | 52.2 µM (inactive) | 35.2 µM (inactive) | 17.5 µM (inactive) | 18.6 µM (inactive) | 33.8 µM (inactive) | 25.8 µM (inactive) | 24.3 µM (inactive) | 24.5 µM (inactive) | 23.1 µM (inactive) | 19.6 µM (inactive) | 14 µM (inactive) | 45.9 µM (inactive)
7 | O=C1CSC(/C=C/c2ccccc2)N1c1ccc(-c2ccc(-n3c(-c4ccccc4)nc4ccccc4c3=O)cc2)cc1 (stereo unspecified) | 24.7 µM (inactive) | 20.7 | 35.6 µM (inactive) | 17.2 µM (inactive) | 21.1 µM (inactive) | – | 27.9 µM (inactive) | 23.1 µM (inactive) | 14.5 µM (inactive) | 21.5 µM (inactive) | 28.5 µM (inactive) | 20.1 µM (inactive) | – | 18.8 µM (inactive) | 23.6 µM (inactive) | 25.9 µM (inactive) | 15.8 µM (inactive) | 66.2 µM (inactive) | 14.2 µM (inactive)
8 | CC1(C)OCC(C2OC(C)(C)OC2[C@H]2O[C@@]3(O)[C@H]4[C@H](C=CC[C@@H]42)[C@@H](OCc2ccccc2)[C@H](OCc2ccccc2)[C@H]3OCc2ccccc2)O1 (stereo partly specified) | 61 µM (inactive) | 21.9 | 70 µM (inactive) | 72.3 µM (inactive) | 28.6 µM (inactive) | 59.3 µM (inactive) | – | > 100 µM (inactive) | 17.9 µM (inactive) | 53.6 µM (inactive) | > 100 µM (inactive) | 71 µM (inactive) | 16.1 µM (inactive) | > 100 µM (inactive) | > 100 µM (inactive) | 23.9 µM (inactive) | 22.6 µM (inactive) | – | 31 µM (inactive)
9 | Cc1cn(C2CC(O)C(COC(N)=O)O2)c(=O)[nH]c1=O (stereo unspecified) | > 100 µM (inactive) | > 100 | > 100 µM (inactive) | > 100 µM (inactive) | > 100 µM (inactive) | > 100 µM (inactive) | > 100 µM (inactive) | > 100 µM (inactive) | > 100 µM (inactive) | > 100 µM (inactive) | > 100 µM (inactive) | > 100 µM (inactive) | > 100 µM (inactive) | > 100 µM (inactive) | > 100 µM (inactive) | > 100 µM (inactive) | > 100 µM (inactive) | – | > 100 µM (inactive)
10 | COc1c(C(C)(C)C)cc(CC2C(=O)C=CC2=O)cc1C(C)(C)C | 6.53 µM (inactive) | 14.1 | 19.1 µM (inactive) | 23.8 µM (inactive) | 32 µM (inactive) | – | 2.95 µM (inactive) | 17.2 µM (inactive) | 15.5 µM (inactive) | 18.2 µM (inactive) | 18.4 µM (inactive) | 14.2 µM (inactive) | 3.13 µM (inactive) | 16.6 µM (inactive) | 8.47 µM (inactive) | 4.93 µM (inactive) | 11.1 µM (inactive) | – | 8.61 µM (inactive)
11 | CC1C(OC2O[C@@H]3O[C@@]4(C)CC[C@H]5[C@H](C)CC[C@@H](C2C)[C@@]35O4)O[C@@H]2O[C@@]3(C)CC[C@H]4[C@H](C)CC[C@@H]1[C@@]24O3 (stereo partly specified) | > 50 µM (inactive) | > 50 | > 50 µM (inactive) | > 50 µM (inactive) | – | > 50 µM (inactive) | > 50 µM (inactive) | > 50 µM (inactive) | > 50 µM (inactive) | > 50 µM (inactive) | > 50 µM (inactive) | – | > 50 µM (inactive) | > 50 µM (inactive) | 1.65 µM (inactive) | > 50 µM (inactive) | > 50 µM (inactive) | > 50 µM (inactive) | –
12 | Cc1nn(-c2ccccc2)c2c1C(c1ccc(Cl)cc1)NC(=S)N2 (stereo unspecified) | 88.9 µM (inactive) | 17.5 | 25.8 µM (inactive) | 25.9 µM (inactive) | 24.3 µM (inactive) | 25.9 µM (inactive) | 19.1 µM (inactive) | 28.2 µM (inactive) | 30.5 µM (inactive) | 19.5 µM (inactive) | 16.1 µM (inactive) | 12.6 µM (inactive) | 20 µM (inactive) | – | 20.7 µM (inactive) | 36.1 µM (inactive) | 16.3 µM (inactive) | – | 15 µM (inactive)
13 | CC(C)(C)OC(=O)N1C(c2cccnc2)=CC[C@H]2C3CC=C(c4cccnc4)[C@@]3(C)CC[C@@H]21 (stereo partly specified) | 4.76 µM (inactive) | 3.52 | 2.9 µM (inactive) | 4.53 µM (inactive) | 8.45 µM (inactive) | 3.56 µM (inactive) | 1.82 µM (inactive) | 3.44 µM (inactive) | 3.53 µM (inactive) | 3.36 µM (inactive) | 2.79 µM (inactive) | 4.16 µM (inactive) | 4.04 µM (inactive) | – | 3.46 µM (inactive) | 0.52 µM (active) | 2.71 µM (inactive) | – | 4.95 µM (inactive)
14 | O=C(Nc1ccc2nc(O)n[n+]([O-])c2c1)C(F)(F)F | > 100 µM (inactive) | > 100 | > 100 µM (inactive) | > 100 µM (inactive) | > 100 µM (inactive) | > 100 µM (inactive) | > 100 µM (inactive) | – | > 100 µM (inactive) | > 100 µM (inactive) | > 100 µM (inactive) | > 100 µM (inactive) | > 100 µM (inactive) | > 100 µM (inactive) | > 100 µM (inactive) | > 100 µM (inactive) | > 100 µM (inactive) | – | > 100 µM (inactive)
15 | C1=CC2C(C3CN(c4ccccc4)N=C13)C1C3C4C=CC21C=CC43 (stereo unspecified) | – | > 100 | > 100 µM (inactive) | > 100 µM (inactive) | > 100 µM (inactive) | > 100 µM (inactive) | > 100 µM (inactive) | 57.5 µM (inactive) | > 100 µM (inactive) | > 100 µM (inactive) | > 100 µM (inactive) | > 100 µM (inactive) | > 100 µM (inactive) | > 100 µM (inactive) | > 100 µM (inactive) | > 100 µM (inactive) | > 100 µM (inactive) | > 100 µM (inactive) | > 100 µM (inactive)
16 | Cc1ncc([N+](=O)[O-])n1CCNC(=O)CCCCn1ccnc1[N+](=O)[O-] | > 10 µM (inactive) | > 100 | > 100 µM (inactive) | > 100 µM (inactive) | > 100 µM (inactive) | > 100 µM (inactive) | – | > 100 µM (inactive) | > 100 µM (inactive) | > 100 µM (inactive) | > 100 µM (inactive) | > 100 µM (inactive) | > 100 µM (inactive) | – | > 100 µM (inactive) | > 100 µM (inactive) | – | > 100 µM (inactive) | > 100 µM (inactive)
